This is an account of results in patent EP3782997A1, “FUSED PYRIMIDINE COMPOUNDS AND PHARMACEUTICAL COMPOSITIONS THEREOF FOR THE TREATMENT OF FIBROTIC DISEASES” (Galapagos N.V., priority 2019, dated 2021).

The term IC50 denotes the point on the concentration scale where inhibition reaches its midpoint. Low readings indicate higher potency, high ones lower potency.

The target of assay [1] is hENPP2 (Homo sapiens, UniProt Q13822). Description: Human ENPP2 (hENPP2) biochemical assay using LPC as substrate. As to conditions: 150 µM LPC (palmitoyl 16:0), 37°C for 30 min. The essentials: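 Enzyme at 1 or 3 µg/mL final in Tris-HCl pH 8.5, NaCl, KCl, CaCl2, fatty-acid-free BSA; reaction started with 150 µM LPC 16:0 (as added), 30 min at 37°C. Released choline developed with choline oxidase/peroxidase/TOOS/4-aminoantipyrine plus EGTA stop, read at 555 nm after 30 min; 1/3 dilutions from 50 µM give IC50.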

Assay [2] has as its system C57BL/6 mice. Description: Bleomycin (BLM) induced pulmonary fibrosis model. As to conditions: both doses (10 mg/kg and 30 mg/kg, b.i.d. p.o., Day 7 to Day 21); vs. BLM/vehicle control, *p<0.05, Mann-Whitney. The format is in vivo. From the text: The murine bleomycin induced pulmonary fibrosis model is a widely used standard animal model of pulmonary fibrosis (Walters & Kleeberger 2001). Bleomycin administration results in oxidative stress and acute inflammation with the subsequent onset of pulmonary fibrosis. Epithelial cell injury with reactive hyperplasia, basement membrane damage, clusters of spindle-shaped mesenchymal cells resembling fibroblastic foci, and interstitial as well as intra-alveolar fibrosis are histological characteristics of the bleomycin model similar to those of IPF.
For the purpose of the induction of pulmonary fibrosis 8 weeks old C57BL/6 mice with an average weight of ∼25 g randomly grouped in experimental groups were used. […]
Body weight and clinical signs were monitored throughout the experiment.
The main read-outs in the model were: • Blood for PK analysis • Body weight • Lung weight • Histopathological examination of lung tissue • Ashcroft score on slides stained for collagen with Crossman's trichrome, as well as evaluation of collagen deposition using digital image analysis (CaloPix software, TRIBVN Healthcare, France) on collagen-1A1 stained slides (immunohistochemistry, IHC) (Ashcroft et al. 1988; Hübner et al. 2008; Matsuse et al. 1999). […]

Assay [3] concerns Sprague-Dawley rats. The assay is described as follows: Rat pain model (partial sciatic nerve injury, von Frey and plantar tests). The format is in vivo. As to conditions: 10 mg/kg p.o. bid. On the procedure: The neuropathic pain rat model originally established by Seltzer et al. (Seltzer et al. 1990) is used to evaluate the effect of a test compound against tactile allodynia and contingent thermal hyperalgesia caused by partial sciatic nerve injury (PSNL) induced by sciatic nerve partial ligature.
The test compounds are administered to the treatment groups on a daily basis, starting from post-surgical day 3 (D3), and continued until the end point day on D15.
Gabapentin is used as a positive control. […]
On the test days, pre-dose allodynia was evaluated prior to dosings, and the effects of the administered compounds assessed 2 hours post dosing. […]
In the manual test approach (10 g vF), a pre-calibrated 10 g von Frey hair was used to exert five repeats of filament presentations. […] The results were recorded as percentages of positive reactions within five repeats of filament presentations. […] The actual force application was monitored in real time to ensure its linearity and thus the proper performance of the test in each measurement. The peak force (g), i.e. the lowest force evoking paw withdrawal was recorded, and the absolute paw withdrawal thresholds (PWTs) calculated as medians of triplicate measurements. […]
The contingency of heat hyperalgesia due to PSNL injury was assessed on the test days 2 hours post dosing. […]

As for `Cc1cc(C)cc(Nc2ncc3c(n2)CN([C@@H]2CCN(C(=O)c4cc5nn[nH]c5cc4F)[C@H](C)C2)C3)c1` [Cpd 115, [(2R,4R)-4-[2-(3,5-dimethylanilino)-5,7-dihydropyrrolo[3,4-d]pyrimidin-6-yl]-2-methyl-1-piperidyl]-(6-fluoro-1H-benzotriazol-5-yl)methanone], the IC50 in assay [1] was 0.01 to 100 nM. Also, the Ashcroft score result in assay [2] is on record as “significantly decrease”. Further, the allodynia entry in assay [3] is “statistically significant reduction”. The heat hyperalgesia result in assay [3] (plantar test) was “statistically significant reduction”.
